Results: article PMC8757360 (ACS Omega, 2021)

How the values were obtained:
MDA-MB-231 = test: MTT cytotoxicity, MDA-MB-231; assay type: cell-based; conditions: Homo sapiens, MDA-MB-231, 72 h, read-out: IC50 MDA-MB-231
A549 = test: MTT cytotoxicity, A549; assay type: cell-based; conditions: Homo sapiens, A549, 72 h, read-out: IC50 A549
HEK-293T-ACE2h cells = conditions: human
T47D = test: MTT cytotoxicity, T47D; conditions: for IC50: Homo sapiens, T47D, 72 h, read-out: IC50 T47D; for cytotoxic effect, fold more potent than berberine: T47D cells, versus positive control berberine
MCF-7 = test: MTT cytotoxicity, MCF-7; conditions: for IC50: Homo sapiens, MCF7, 72 h, read-out: IC50 MCF-7
[1] = tested on: MCF-7, T47D, MDA-MB-231, and A549; test: MTT cytotoxicity, range stated over four cancer cell lines; assay type: cell-based; conditions: Homo sapiens, 72 h, read-out: IC50 values ranging over four cancer cell lines
[2] = tested on: SARS-CoV-2 spike pseudovirus; assay type: cell-based
human ACE2 = human ACE2 (Homo sapiens, UniProt Q9BYF1); test: biochemical; assay type: binding
SARS-CoV-2 spike RBD = SARS-CoV-2 spike RBD (Severe acute respiratory syndrome coronavirus 2, UniProt P0DTC2); test: biochemical; assay type: binding

Sequence of human ACE2 (Q9BYF1 18-805): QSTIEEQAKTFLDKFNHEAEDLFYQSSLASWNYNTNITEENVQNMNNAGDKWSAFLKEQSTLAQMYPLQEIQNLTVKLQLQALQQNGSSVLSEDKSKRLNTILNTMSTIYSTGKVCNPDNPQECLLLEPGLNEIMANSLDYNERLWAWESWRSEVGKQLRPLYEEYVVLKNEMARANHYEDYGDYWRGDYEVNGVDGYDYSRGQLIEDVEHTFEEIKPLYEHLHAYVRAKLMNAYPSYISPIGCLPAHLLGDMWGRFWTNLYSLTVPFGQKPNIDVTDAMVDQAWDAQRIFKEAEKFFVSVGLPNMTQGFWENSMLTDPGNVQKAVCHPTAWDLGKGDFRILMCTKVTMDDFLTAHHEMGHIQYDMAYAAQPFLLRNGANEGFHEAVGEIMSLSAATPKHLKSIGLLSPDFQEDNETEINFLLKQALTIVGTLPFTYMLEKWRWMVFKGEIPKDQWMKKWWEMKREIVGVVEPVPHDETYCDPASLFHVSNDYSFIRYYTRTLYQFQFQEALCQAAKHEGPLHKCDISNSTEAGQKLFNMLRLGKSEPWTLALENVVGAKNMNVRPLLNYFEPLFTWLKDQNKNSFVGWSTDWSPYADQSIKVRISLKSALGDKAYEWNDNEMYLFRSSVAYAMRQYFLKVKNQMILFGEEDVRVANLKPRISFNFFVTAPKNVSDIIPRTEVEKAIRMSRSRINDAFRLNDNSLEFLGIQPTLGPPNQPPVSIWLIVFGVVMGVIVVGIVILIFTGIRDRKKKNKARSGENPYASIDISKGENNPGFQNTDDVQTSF

Row | SMILES | IC50 (MDA-MB-231) | IC50 (A549) | CC0 (maximum nontoxic concentration) (HEK-293T-ACE2h cells) | TC50 (concentration that caused 50% cells' death) (HEK-293T-ACE2h cells) | IC50 (T47D) | IC50 (MCF-7) | IC50 [1] | cytotoxic effect, fold more potent than berberine (T47D) | SI (selectivity index, TC50/IC50) [2] | Kd (human ACE2) | Kd (SARS-CoV-2 spike RBD) | cytotoxic effect, fold more potent than berberine (MCF-7; MCF-7 cells, versus positive control berberine)
1 | N#Cc1ccc2nc(-c3ccccc3)c(-c3ccccc3)nc2c1 [4ae, 2,3-Diphenylquinoxaline-6-carbonitrile] | > 50 µM | > 50 µM | 125 µM | 303.27 ± 9.51 µM | > 50 µM | > 50 µM |  |  |  |  |  | 
2 | c1ccc(-c2nc3ccccc3nc2-c2ccsc2)cc1 [4ra, 2-Phenyl-3-(thiophen-3-yl)quinoxaline] | > 50 µM | > 50 µM | 62.5 µM | 337.06 ± 15.49 µM | > 50 µM | > 50 µM |  |  |  |  |  | 
3 | Cc1ccc2nc(-c3ccccc3)c(-c3ccccc3)nc2c1 [4ab, 6-Methyl-2,3-diphenylquinoxaline] | 18.2 ± 1.34 µM | 19.7 ± 1.28 µM | 62.5 µM | 288.40 ± 17.65 µM | 6.77 ± 0.57 µM | 10 ± 0.55 µM | 6.25 to 28.6 µM | 3.94 fold |  |  |  | 
4 | COc1ccc(-c2nc3ccccc3nc2-c2ccccc2)cc1 [4ca, 2-(4-Methoxyphenyl)-3-phenylquinoxaline] | 48.8 ± 1.01 µM | > 50 µM | 125 µM | 276.90 ± 13.45 µM | > 50 µM | > 50 µM |  |  | 14.05 | 3.67 ± 0.66 µM | 15.5 ± 1.14 µM | 
5 | Fc1ccc(-c2nc3ccccc3nc2-c2ccccc2)cc1 [4ka, 2-(4-Fluorophenyl)-3-phenylquinoxaline] |  |  | 25 µM | >100 µM |  |  |  |  |  |  |  | 
6 | Clc1ccc(-c2nc3ccccc3nc2-c2ccccc2)cc1 [4ia, 2-(4-Chlorophenyl)-3-phenylquinoxaline] | 17.8 ± 0.69 µM | 18.6 ± 0.25 µM | 25 µM | 115.20 ± 9.72 µM | 6.25 ± 0.73 µM | 7.3 ± 1.1 µM | 6.25 to 28.6 µM | 4.27 fold |  |  |  | 1.96 fold
7 | COC(=O)c1ccc2nc(-c3ccccc3)c(-c3ccccc3)nc2c1 [4af, Methyl 2,3-diphenylquinoxaline-6-carboxylate] | > 50 µM | > 50 µM | 100 µM | >100 µM | > 50 µM | > 50 µM |  |  |  |  |  | 
8 | Clc1ccc2nc(-c3ccccc3)c(-c3ccccc3)nc2c1 [4ad, 6-Chloro-2,3-diphenylquinoxaline] | > 50 µM | > 50 µM | >25 µM | >500 µM | > 50 µM | > 50 µM |  |  | >23.49 | 4.02 ± 2.03 µM | 8.16 ± 1.34 µM | 
9 | Brc1ccc(-c2nc3ccccc3nc2-c2ccccc2)cc1 [4ja, 2-(4-Bromophenyl)-3-phenylquinoxaline] |  |  | 25 µM | >100 µM |  |  |  |  |  |  |  | 
10 | c1ccc(-c2ccc(-c3nc4ccccc4nc3-c3ccccc3)cc2)cc1 [4ha, 2-([1,1′-Biphenyl]-4-yl)-3-phenylquinoxaline] | > 50 µM | > 50 µM | >250 µM | >500 µM | > 50 µM | > 50 µM |  |  | >3.50 | 238 ± 57.3 µM | 135 ± 17.7 µM | 
11 | COc1ccc2cc3[n+](cc2c1OC)CCc1cc2c(cc1-3)OCO2 [berberine, reference compound] | 18 ± 1.91 µM | 5.22 ± 0.44 µM |  |  | 26.7 ± 2.45 µM | 14.3 ± 1.44 µM |  |  |  |  |  | 
12 | c1ccc(-c2nc3ccccc3nc2-c2ccc3ccccc3c2)cc1 [4pa, 2-(Naphthalen-2-yl)-3-phenylquinoxaline] | > 50 µM | > 50 µM | >25 µM | >250 µM | > 50 µM | > 50 µM |  |  |  |  |  | 
13 | COc1ccc2nc(-c3ccccc3)c(-c3ccccc3)nc2c1 [4ac, 6-Methoxy-2,3-diphenylquinoxaline] | > 50 µM | > 50 µM | 50 µM | 116.03 ± 4.28 µM | > 50 µM | > 50 µM |  |  |  |  |  | 
14 | C=CCc1cc(-c2cc(CC=C)c3oc(=O)n(Cc4nnc(-c5ccc(OC)cc5)o4)c3c2)c2oc(=O)n(Cc3nnc(-c4ccc(OC)cc4)o3)c2c1 [6p, 5′,7-Diallyl-3,3′-bis((5-(4-methoxyphenyl)-1,3,4-oxadiazol-2-yl)methyl)-[5,7′-bibenzo[d]oxazole]-2,2′(3H,3′H)-dione, reference compound] |  |  | >100 µM | >100 µM |  |  |  |  | >8.40 |  |  | 
15 | Cc1ccc(-c2nc3ccccc3nc2-c2ccccc2)cc1 [4ba, 2-Phenyl-3-(p-tolyl)quinoxaline] | 21.4 ± 1.19 µM | 24.1 ± 1.11 µM | 125 µM | 271.67 ± 13.00 µM | 9.76 ± 1.3 µM | 15.7 ± 1.18 µM | 6.25 to 28.6 µM |  |  |  |  | 
16 | c1ccc(-c2nc3cc4ccccc4cc3nc2-c2ccccc2)cc1 [4ag, 2,3-Diphenylbenzo[g]quinoxaline] | 45 ± 1.57 µM | 44.5 ± 3.55 µM | 50 µM | 107.20 ± 1.64 µM | 20.5 ± 1.64 µM | > 50 µM |  |  |  |  |  | 
17 | c1ccc(-c2nc3ccccc3nc2-c2ccccc2)cc1 [4aa, 2,3-Diphenylquinoxaline] | 28.6 ± 1.85 µM | 26.3 ± 1.96 µM | >250 µM | >25 µM | 11.4 ± 1.17 µM | 16.7 ± 1.34 µM | 6.25 to 28.6 µM |  |  | 5890 ± 1670 µM | 1000 ± 761 µM | 
